Source: patent US6461997B1, “Triazole sulfones having herbicidal activity” (Monsanto Technology LLC, priority 1999, dated 2002)

Legend:
[1] = system: POLCO (wild buckwheat); test: Pre-emergence herbicidal activity, cool season; assay type: in vivo, Polygonum convolvulus; settings: lowest tested rate with 80% or greater inhibition; rates 300, 100, 30, 10 g/ha; about 14 days
In short: (§1)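 GR80 values derive from percent inhibition relative to untreated plants, read roughly 14 days after sowing and pre-emergence soil-surface treatment (compound in 50:50 acetone/water; rates typically 10, 30, 100, 300 g/ha). Warm-season weeds grew at 30/21° C day/night, cool-season ones at 18/13° C; an asterisk marks activity without reaching 80% at the highest rate.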

[2] = system: STEME (common chickweed); test: Pre-emergence herbicidal activity, cool season; assay type: in vivo, Stellaria media; settings: lowest tested rate with 80% or greater inhibition; rates 300, 100, 30, 10 g/ha; about 14 days
In short: as §1

[3] = system: AGSST (creeping bentgrass); test: Pre-emergence herbicidal activity, cool season; assay type: in vivo, Agrostis stolonifera; settings: GR80 = lowest tested rate (300, 100, 30, 10 g/ha) with 80% or greater inhibition; approx. 14 days after treating; 18/13° C.
In short: as §1

[4] = system: BRAPP (broadleaf signalgrass); test: Pre-plant incorporated (PPI) herbicidal activity, warm season; assay type: in vivo, Brachiaria platyphylla
Description: (§2) In another set of tests, the pre-plant incorporated (PPI) activity of compounds of this invention was evaluated on the same species as for the pre-emergence tests described above. In the PPI tests the following procedure, designed to simulate PPI application, was used.
(§3) A pre-prepared topsoil mixture (described above) was placed in a pot and compacted to a depth of 1.0 to 1.25 cm from the top of the pot. Seeds of each of several monocotyledonous and dicotyledonous annual plant species were placed on top of the soil. A sufficient quantity of soil to cover the seeds and level fill the pot was weighed into an open container. A known amount of the test compound was dissolved or suspended in an organic solvent and applied by spraying to this cover soil. The cover soil was thoroughly mixed to distribute the test compound throughout the cover soil, and was then applied as a cover layer over the seeds. Untreated soil was used as a cover layer for control pots. After treatment the plants were placed in a greenhouse where they received 0.64 cm of overhead irrigation. All subsequent watering consisted of a light overhead mist and/or subirrigation as needed for germination and growth. Tables 9 and 10 below relate to warm season plant species which were placed after pre-emergence treatment in a greenhouse with a 30/21° C. day/night temperature regime. Tables 11 and 12 below relates to cool season plant species placed after pre-emergence treatment in a greenhouse or growth chamber with an 18/13° C. day/night temperature regime. Only the compounds of Examples 1, 6, 8, 11, 13 and 15-20 were included in PPI tests.
(§4) Approximately 14 days after planting and treating, the plants were observed and herbicidal efficacy recorded as percent inhibition by comparison with untreated plants.

[5] = system: SINAR (wild mustard); test: Pre-plant incorporated (PPI) herbicidal activity, cool season; assay type: in vivo, Sinapis arvensis
Description: as §2, §3, §4

[6] = system: ALOMY (blackgrass); test: as above; assay type: in vivo, Alopecurus myosuroides
Description: as §2, §3, §4

[7] = system: BROTE (downy brome); test: as above; assay type: in vivo, Bromus tectorum
Description: as §2, §3, §4

[8] = system: AVEFA (wild oat); test: as above; assay type: in vivo, Avena fatua
Description: as §2, §3, §4

[9] = system: corn (ZEAMX); test: Selectivity test, PPI, warm season crop; assay type: in vivo, Zea mays; settings: PPI application
Description: as §3, §4
Additional pre-emergence and PPI tests were conducted by the procedures described above, on warm and cool season weed species in the presence of crop species, to assess herbicidal selectivity. Crop species included in warm season tests were corn (Zea mays, ZEAMX), rice (Oryza sativa, ORYSA) and soybean (Glycine max, GLYMX). Crop species included in cool season tests were wheat (Triticum aestivum, TRZAW), barley (Hordeunm vulgare, HORVX) and oilseed rape (Brassica napus, BRSNS).
Tables 15 and 16 relate to pre-emergence and PPI tests respectively on warm season species. Table 17 relates to pre-emergence tests on cool season species.

[10] = pre-plant incorporated, lowest tested rate with 80% or greater inhibition, about 14 days
[11] = weed, PPI application, 100 g/ha
[12] = weed, PPI application, 300 g/ha
[13] = weed, PPI application, 900 g/ha

CCSC(F)(F)S(=O)(=O)c1ncn(C(=O)N(CC)CC)n1 [Example 8, 1-(N,N-diethylcarbamoyl)-3-[difluoro(ethylthio)methylsulfonyl]-1,2,4-triazole]
Pre-emergence activity GR80, POLCO [1]: [empty]
Pre-emergence activity GR80, STEME [2]: [empty]
Pre-emergence activity (GR80) AGSST [3]: 30 g/ha
inhibition at 30 g/ha ([4]; Urochloa platyphylla, PPI application, 30 g/ha, read-out: Percent inhibition BRAPP): 40%
inhibition at 100 g/ha ([4]; Urochloa platyphylla, PPI application, 100 g/ha, read-out: Percent inhibition BRAPP): 70%
inhibition at 300 g/ha ([4]; Urochloa platyphylla, PPI application, 300 g/ha, read-out: Percent inhibition BRAPP): 100%
inhibition at 900 g/ha ([4]; Urochloa platyphylla, PPI application, 900 g/ha, read-out: Percent inhibition BRAPP): 100%
PPI activity GR80, BRAPP [4, 10]: 30 g/ha
inhibition at 30 g/ha ([5]; Brassica, weed, PPI application, 30 g/ha, read-out: Percent inhibition SINAR): 100%
inhibition at 100 g/ha ([5]; Brassica, weed, PPI application, 100 g/ha, read-out: Percent inhibition SINAR): 95%
inhibition at 300 g/ha ([5]; Brassica, weed, PPI application, 300 g/ha, read-out: Percent inhibition SINAR): 100%
inhibition at 900 g/ha ([5]; Brassica, weed, PPI application, 900 g/ha, read-out: Percent inhibition SINAR): 80%
PPI activity GR80, SINAR [5, 10]: 100 g/ha
inhibition at 30 g/ha ([6]; Alopecurus myosuroides, weed, PPI application, 30 g/ha, read-out: Percent inhibition ALOMY): 0%
inhibition at 100 g/ha ([6]; Alopecurus myosuroides, weed, PPI application, 100 g/ha, read-out: Percent inhibition ALOMY): 95%
inhibition at 300 g/ha ([6]; Alopecurus myosuroides, weed, PPI application, 300 g/ha, read-out: Percent inhibition ALOMY): 100%
inhibition at 900 g/ha ([6]; Alopecurus myosuroides, weed, PPI application, 900 g/ha, read-out: Percent inhibition ALOMY): 100%
PPI activity GR80, ALOMY [6, 10]: 100 g/ha
inhibition at 30 g/ha ([7]; Bromus tectorum, weed, PPI application, 30 g/ha, read-out: Percent inhibition BROTE): 0%
inhibition at 100 g/ha ([7]; Bromus tectorum, weed, PPI application, 100 g/ha, read-out: Percent inhibition BROTE): 0%
inhibition at 300 g/ha ([7]; Bromus tectorum, weed, PPI application, 300 g/ha, read-out: Percent inhibition BROTE): 65%
inhibition at 900 g/ha ([7]; Bromus tectorum, weed, PPI application, 900 g/ha, read-out: Percent inhibition BROTE): 99%
PPI activity GR80, BROTE [7, 10]: 300 g/ha
inhibition at 30 g/ha ([8]; Avena fatua, weed, PPI application, 30 g/ha, read-out: Percent inhibition AVEFA): 10%
inhibition at 100 g/ha ([8]; Avena fatua, weed, PPI application, 100 g/ha, read-out: Percent inhibition AVEFA): 75%
inhibition at 300 g/ha ([8]; Avena fatua, weed, PPI application, 300 g/ha, read-out: Percent inhibition AVEFA): 95%
inhibition at 900 g/ha ([8]; Avena fatua, weed, PPI application, 900 g/ha, read-out: Percent inhibition AVEFA): 100%
PPI activity GR80, AVEFA [8, 10]: 100 g/ha
inhibition at 30 g/ha ([9]; Zea mays, 30 g/ha, read-out: Percent inhibition ZEAMX): 0%
inhibition at 100 g/ha ([9]; Zea mays, 100 g/ha, read-out: Percent inhibition ZEAMX): 5%
inhibition at 300 g/ha ([9]; Zea mays, 300 g/ha, read-out: Percent inhibition ZEAMX): 65%
inhibition at 900 g/ha ([9]; Zea mays, 900 g/ha, read-out: Percent inhibition ZEAMX): 95%

CCN(CC)C(=O)n1cnc(S(=O)(=O)C(F)(F)SC)n1 [Example 9]
Pre-emergence activity GR80, POLCO [1]: [empty]
Pre-emergence activity GR80, STEME [2]: 300 g/ha
Pre-emergence activity (GR80) AGSST [3]: 30 g/ha
Percent inhibition BRAPP ([4]; PPI application, 30 g/ha): 70%
Percent inhibition BRAPP ([4]; PPI application, 100 g/ha): 80%
Percent inhibition BRAPP ([4]; PPI application, 300 g/ha): 100%
Percent inhibition BRAPP ([4]; PPI application, 900 g/ha): 100%
Percent inhibition SINAR ([5]; weed, PPI application, 30 g/ha): 100%
Percent inhibition SINAR [5, 11]: 100%
Percent inhibition SINAR [5, 12]: 70%
Percent inhibition SINAR [5, 13]: 100%
Percent inhibition ALOMY ([6]; weed, PPI application, 30 g/ha): 40%
Percent inhibition ALOMY [6, 11]: 95%
Percent inhibition ALOMY [6, 12]: 100%
Percent inhibition ALOMY [6, 13]: 100%
Percent inhibition BROTE ([7]; weed, PPI application, 30 g/ha): 0%
Percent inhibition BROTE [7, 11]: 0%
Percent inhibition BROTE [7, 12]: 20%
Percent inhibition BROTE [7, 13]: 95%
Percent inhibition AVEFA ([8]; weed, PPI application, 30 g/ha): 0%
Percent inhibition AVEFA [8, 11]: 20%
Percent inhibition AVEFA [8, 12]: 100%
Percent inhibition AVEFA [8, 13]: 100%
Percent inhibition ZEAMX ([9]; 30 g/ha): 0%
Percent inhibition ZEAMX ([9]; 100 g/ha): 10%
Percent inhibition ZEAMX ([9]; 300 g/ha): 90%
Percent inhibition ZEAMX ([9]; 900 g/ha): 99%
